Measurements from patent US20050059605A1, “Chemically modified metabolites of regulatory peptides and methods of producing and using same” (priority 2003, published 2005).
Where no end group is shown, it is not given here.

Tests used:
[1] = tested on: C57BL/ks db/db mice; experiment: Glucose levels after subcutaneous injection in fasted and re-fed db/db mice; type: in vivo; conditions: 25 μg/mice (500 μg/kg) subcutaneous, 30 minutes of feeding subsequent to overnight fasting, compared to native GLP-1, FIG. 5
[2] = tested on: RINm5F cells; experiment: Dose response curves of GLP-1 analogues on cAMP production in RINm5F cells; type: cell-based, rat; conditions: n=3, FIG. 4
Method: RINm5F cells (ATCC # CRL-2058) were grown according to the manufacturer's specifications. Cells from […] confluent flasks were trypsinized and counted. 20 000 cells/well were seeded in 96-well plate (White Costar plate with clear bottom) in 100 μl media. Cells were grown four days past confluence before being using for experiments.
Stock solutions of agents tested were prepared in DDH2O+0.1% BSA at a concentration of 1 mM (correcting for peptide purity and peptide content when available) immediately prior to the beginning of the assay. From the stock solutions, 2× dilutions (2×10^−12 M to 2×10^−5 M) were made in RPMI medium containing 0.5 mM IBMX. Cell culture media was gently removed from wells. Cells were then washed once with RPMI containing 0.5 mM IBMX and then pre-incubated in 100 μl RPMI/0.5 mM IBMX at 37° C. for 10 minutes. After pre-incubation, 100 μl of each 2× dilutions were added to wells in triplicates and incubated at 37° C. for 40 minutes. At the end of incubation, the supernatant was collected and assayed for cAMP using a radioimmunoassay kit (DPC). Radioactive counts were transformed into cAMP amounts using a standard curve. cAMP values were corrected for total protein content in the corresponding wells determined by Coomassie blue assay. cAMP values were expressed as mean±SEM in pmol/mg protein (FIG. 2). […]

[3] = tested on: freshly isolated hepatocytes; experiment: Effects of glucagon and analogues on freshly isolated hepatocyte cAMP production; type: cell-based, rat; conditions: 10^−7M, n=2, FIG. 3, compared to analogue 357 or glucagon
Method: All experimental procedures were performed under isoflurane (2.5%) anesthesia according to an experimental protocol approved by Ste-Justine Hospital (Montreal) animal care committee. […] The animal was perfused through the heart to remove a maximal amount of blood from the liver (acquire a light brown color). A catheter (PE-90) was then inserted in the portal vein and the liver further perfused to eliminate any trace of blood. The hepatic artery was also cannulated (PE-50) and perfused. The liver was then carefully removed from the abdominal cavity and placed into a 250 ml beaker. Digesting HEPES buffer containing 9650U collagenase and 20U elastase at 37° C. was placed into the beaker and circulated in a closed loop via the catheters for 10 minutes at maximal speed. The buffer was replaced with a fresh solution of collagenase and elastase and perfusion continues for 10 additional minutes. […]
Stimulation studies were performed at a concentration of 1 million cells per tube; 5 minutes of pre-treatment with 0.1 mM IBMX, with or without glucagon agonists (10^−7M) compared to treatment with glucagon (10^−7M). […] The cAMP levels in the tubes were determined using a radioimmunoassay kit (Amersham DPC kit). The data are expressed as pmol cAMP/million cells.

[4] = tested on: whole anterior pituitary culture; experiment: cAMP production stimulated by GRF analogues in whole anterior pituitary culture; type: cell-based; conditions: 10^−6 M, compared to analogue 356, FIG. 6
Description: For comparison, a DPPIV resistant analogue of GRF (analogue 280) was shown.

4-Methoxyphenetylamine-mGly-GLP-1 (9-36) amide [Compound 288]
glucose levels (hypoglycemic response) [1]: more significant hypoglycemic response | cAMP production [2]: increased CAMP production

Glucagon (3-29) amide (QGTFTSDYSKYLDSRRAQDFVQWLMNT-NH2; UniProt P01275 55-81, looked up, fragment) [Compound 357, glucagon analogue lacking the His-Ser dipeptide, reference compound]
intracellular cAMP levels [3]: negligible response

4-Methoxyphenethylamine-mGly-Glucagon (3-29) amide [Compound 361]
intracellular cAMP levels [3]: significantly higher intracellular cAMP levels

4-Methoxyphenethylamine-mGly-GRF-1 (3-29) amide [Compound 358]
cAMP response [4]: significantly greater cAMP response
